Measured values taken from BindingDB's records for doi:10.1111/j.1747-0285.2012.01416.x (University of California San Diego, 2012).

Biological target: Cruzipain (Trypanosoma cruzi, UniProt P25779)
Assay: Enzymatic Assay
Description: Enzymatic inhibition using cruzain.

Cruzipain, sequence (P25779 whole entry): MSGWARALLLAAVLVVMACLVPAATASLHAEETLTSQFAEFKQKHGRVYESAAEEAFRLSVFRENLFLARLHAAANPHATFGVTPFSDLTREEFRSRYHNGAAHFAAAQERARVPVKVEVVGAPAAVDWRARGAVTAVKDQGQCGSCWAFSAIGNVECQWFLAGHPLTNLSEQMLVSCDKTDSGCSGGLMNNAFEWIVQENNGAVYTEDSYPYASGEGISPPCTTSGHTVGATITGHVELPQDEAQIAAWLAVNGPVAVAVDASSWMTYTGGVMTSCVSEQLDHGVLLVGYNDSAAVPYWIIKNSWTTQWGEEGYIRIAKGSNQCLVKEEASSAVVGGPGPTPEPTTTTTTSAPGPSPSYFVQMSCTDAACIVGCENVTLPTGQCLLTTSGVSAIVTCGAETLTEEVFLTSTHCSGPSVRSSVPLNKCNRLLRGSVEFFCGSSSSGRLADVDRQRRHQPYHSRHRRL

| SMILES | IC50 |
| --- | --- |
| CO[C@H]1[C@@H](OC(=O)c2ccc(C)[nH]2)[C@@H](O)C(Oc2ccc3c(O)c(NC(=O)c4ccc(O)c(CC=C(C)C)c4)c(=O)oc3c2Cl)OC1(C)C (some centres not stated) [NSC227186] | 16 µM |
| Cn1ccc(=Nc2ccc(NC(=O)c3ccc(N=c4ccn(C)c5ccc([N+](=O)[O-])cc45)cc3)cc2)cc1 [4-[(1-methyl-6-nitro-quinolin-4-ylidene)amino]-N-[4-[(1-methylpyridin-4-ylidene)amino]phenyl]benzamide] | 63 µM |
